# Patent US20250074910A1, “MENIN INHIBITOR AND USE THEREOF” (HITGEN INC., priority 2021, published 2025)
# System: MV4-11
# Test: Cell proliferation inhibition (CellTiter-Glo), MV4-11
# Format: cell-based
# Conditions: MV4-11 cells, 72 h
# Procedure: Test Example 2: Test of the Inhibitory Ability of Menin-MLL Interaction Inhibitors on Cell Proliferation
# The inhibitory ability of the compounds of the present disclosure on the proliferation of tumor cell lines (including cell lines containing MLL fusion protein such as MV4-11, MOLM-13, THP-1 and NOMO-1, control cell lines without MLL fusion protein such as HL-60, K562 and MOLM-16, and cell lines containing NPM1 mutation such as OCI-AML3) was evaluated by using the cell viability analysis method. The cells were plated in 96-well plates at a certain concentration (e.g., 5,000-20,000 cells/well), and then an equal volume of culture medium containing 2 times the final concentration of the test compound (the final concentration ranging 10 from 1 nM to 10 μM) was added. The plates were placed in an incubator and cultured at 37° C. and 5% CO2 for 72-168 h. Before the test, an equal volume of CellTiter-Glo® Luminescent reagent was added, and the plate was incubated at room temperature for 10 min before detection using an ELISA reader (BMG LABTECH). The data were analyzed using GraphPad Prism software to obtain the IC50 value and compound fitting curve. The control compound 1 was prepared by referring to the method of Example 64 in WO2017214367.
row,Structure (SMILES),GI50 [nM]
1,"CCN(C(=O)c1cc(F)ccc1Oc1cncnc1N1CC2(CCN(CC3CC4CCC3CC43CCC(=O)N3)CC2)C1)C(C)C (single isomer, unassigned) [Example 4-1]",55
2,"CCN(C(=O)c1cc(F)ccc1Oc1cncnc1N1CC2(CCN(CC3CC4CCC3CC43CCC(=O)N3)CC2)C1)C(C)C (single isomer, unassigned) [Example 4]",61
3,"CC(C)N(C(=O)c1cc(F)ccc1Oc1cncnc1N1CC2(CCN(CC3CC4CCC3CC43CCC(=O)N3)CC2)C1)C(C)C (single isomer, unassigned) [Example 13-2]",49.7
4,"CC(C)N(C(=O)c1cc(F)ccc1Oc1cncnc1N1CC2(CCN(CC3CC4CCC3CC43CCC(=O)N3)CC2)C1)C(C)C (single isomer, unassigned) [Example 13-2a]",25.2
5,"CC(C)N(C(=O)c1cc(F)ccc1Oc1cncnc1N1CC2(CCN(CC3CC4CCC3CC43CCC(=O)N3)CC2)C1)C(C)C (single isomer, unassigned) [Example 13-2b]",153
6,"CCN(C(=O)c1cc(F)ccc1Oc1nncnc1N1CC2(CCN(C[C@H]3CC[C@]4(CC3)CC(C)C(=O)N4)CC2)C1)C(C)C (single isomer, unassigned) [Example 40-2]",82.8
7,"CCN(C(=O)c1cc(F)ccc1Oc1cncnc1N1CC2(CCN(CC3CC4CCC3CC43COC(=O)N3)CC2)C1)C(C)C (single isomer, unassigned) [Example 50-2]",69.1

# Biological target: Menin/MLL-4-43 peptide interaction (Homo sapiens (Human), UniProt O00255)
# Test: Menin-MLL interaction inhibitory activity assay (fluorescence polarization competition)
# Format: binding
# Conditions: FITC-MLL4-43-peptide, Menin recombinant protein
# Procedure: Test Example 1: Menin-MLL Interaction Inhibitory Activity Assay
# The inhibition of Menin/MLL-4-43 peptide interaction by small molecule inhibitors was quantitatively detected by fluorescence polarization competition assay. The experiment was performed in a 384-well plate (Corning, Cat #3575) using a reaction buffer consisting of 50 mM Tris, pH 7.5, 50 mM NaCl, and 1 mM DTT. A 40 μL reaction system included 10 μL of 8 nM Menin recombinant protein and 10 μL of the test compound at different concentrations. The compound was pre-incubated with Menin protein for 15 min, and then 20 μL of 10 nM FITC-MLL4-43-peptide was added. After incubation on a shaker at 25° C. for 60 min, the fluorescence polarization signal (FP 485 520 520) was read using BMG PHERAStar detection. The experimental data was analyzed and processed by GraphPad Prism 6 software to obtain the IC50 value. The control compound 1 was prepared by referring to the method of Example 64 in WO2017214367.
# Sequence of Menin/MLL-4-43 peptide interaction (O00255 whole entry, species assumed): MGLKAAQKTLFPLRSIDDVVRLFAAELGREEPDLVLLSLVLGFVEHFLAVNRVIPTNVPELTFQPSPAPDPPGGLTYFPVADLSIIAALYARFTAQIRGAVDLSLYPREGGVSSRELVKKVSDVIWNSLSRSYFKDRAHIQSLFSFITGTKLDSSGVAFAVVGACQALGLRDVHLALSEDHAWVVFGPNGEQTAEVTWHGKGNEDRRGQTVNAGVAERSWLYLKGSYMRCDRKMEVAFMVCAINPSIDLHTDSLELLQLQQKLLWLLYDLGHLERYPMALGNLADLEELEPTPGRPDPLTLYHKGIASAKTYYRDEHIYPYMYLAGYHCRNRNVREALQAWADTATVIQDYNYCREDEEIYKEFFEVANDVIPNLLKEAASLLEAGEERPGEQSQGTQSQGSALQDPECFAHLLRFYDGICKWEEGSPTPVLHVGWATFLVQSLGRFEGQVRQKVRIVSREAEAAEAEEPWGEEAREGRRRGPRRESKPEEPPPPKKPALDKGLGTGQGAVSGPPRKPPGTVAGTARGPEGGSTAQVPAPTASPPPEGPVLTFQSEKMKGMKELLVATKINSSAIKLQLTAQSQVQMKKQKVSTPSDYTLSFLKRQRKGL
row,Structure (SMILES),IC50 [nM]
1,"CCN(C(=O)c1cc(F)ccc1Oc1cncnc1N1CC2(CCN(CC3CC4CCC3CC43CCC(=O)N3)CC2)C1)C(C)C (single isomer, unassigned) [Example 4-1]",12.1
2,"CCN(C(=O)c1cc(F)ccc1Oc1cncnc1N1CC2(CCN(CC3CC4CCC3CC43CCC(=O)N3)CC2)C1)C(C)C (single isomer, unassigned) [Example 4-2]",60.7
3,"CCN(C(=O)c1cc(F)ccc1Oc1cncnc1N1CC2(CCN(CC3CC4CCC3CC43CCC(=O)N3)CC2)C1)C(C)C (single isomer, unassigned) [Example 4]",29
4,"CC(C)N(C(=O)c1cc(F)ccc1Oc1cncnc1N1CC2(CCN(CC3CC4CCC3CC43CCC(=O)N3)CC2)C1)C(C)C (single isomer, unassigned) [Example 13-1a]",177
5,"CC(C)N(C(=O)c1cc(F)ccc1Oc1cncnc1N1CC2(CCN(CC3CC4CCC3CC43CCC(=O)N3)CC2)C1)C(C)C (single isomer, unassigned) [Example 13-2]",24.9
6,"CC(C)N(C(=O)c1cc(F)ccc1Oc1cncnc1N1CC2(CCN(CC3CC4CCC3CC43CCC(=O)N3)CC2)C1)C(C)C (single isomer, unassigned) [Example 13-2a]",16.5
7,"CC(C)N(C(=O)c1cc(F)ccc1Oc1cncnc1N1CC2(CCN(CC3CC4CCC3CC43CCC(=O)N3)CC2)C1)C(C)C (single isomer, unassigned) [Example 13-2b]",142
8,"CC(C)N(C(=O)c1cc(F)ccc1Oc1nncnc1N1CC2(CCN(CC3CC4CCC3CC43CCC(=O)N3)CC2)C1)C(C)C (single isomer, unassigned) [Example 15-1b]",142
9,"CCN(C(=O)c1cc(F)ccc1Oc1nncnc1N1CC2(CCN(C[C@H]3CC[C@]4(CC3)CC(C)C(=O)N4)CC2)C1)C(C)C (single isomer, unassigned) [Example 40-2]",34.9
10,"[2H]C([2H])([2H])C1C[C@]2(CC[C@@H](CN3CCC4(CC3)CN(c3ncnnc3Oc3ccc(F)cc3C(=O)N(CC)C(C)C)C4)CC2)NC1=O (single isomer, unassigned) [Example 42-2]",44.5
11,"CCN(C(=O)c1cc(F)ccc1Oc1cncnc1N1CC2(CCN(CC3CC4CCC3CC43COC(=O)N3)CC2)C1)C(C)C (single isomer, unassigned) [Example 50-2]",39.9
12,"CC(C)N(C(=O)c1cc(F)ccc1Oc1cncnc1N1CC2(CCN(CC3CC4CCC3CC43COC(=O)N3)CC2)C1)C(C)C (single isomer, unassigned) [Example 51-2b]",141
13,"CC(C)N(C(=O)c1cc(F)ccc1Oc1nncnc1N1CC2(CCN(CC3CC4CCC3CC43COC(=O)N3)CC2)C1)C(C)C (single isomer, unassigned) [Example 52-1]",135
14,"CC(C)N(C(=O)c1cc(F)ccc1Oc1nncnc1N1CC2(CCN(CC3CC4CCC3CC43COC(=O)N3)CC2)C1)C(C)C (single isomer, unassigned) [Example 52-2]",93.9
15,CC(C)N(C(=O)c1cc(F)ccc1Oc1nncnc1N1CC2(CCN(C[C@H]3CC[C@@]4(CCC(=O)N4)CC3)CC2)C1)C1CC1 [Example 11],167
16,CCN(C(=O)c1cc(F)ccc1Oc1nncnc1N1CC2(CCN(CC3CC4CCC3CC43CCC(=O)N3)CC2)C1)C(C)C (stereo not drawn) [Example 14-1],103
17,CC(C)N(C(=O)c1cc(F)ccc1Oc1nncnc1N1CC2(CCN(CC3CC4CCC3CC43CCC(=O)N3)CC2)C1)C(C)C (stereo not drawn) [Example 15-1],90.9
18,CC(C)N(C(=O)c1cc(F)ccc1Oc1nncnc1N1CC2(CCN(CC3CC4CCC3CC43CCC(=O)N3)CC2)C1)C1CC1 (stereo not drawn) [Example 16-2],163
19,CC(C)N(C)C(=O)c1cc(F)ccc1Oc1nncnc1N1CC2(CCN(C[C@H]3CC[C@]4(CC3)CC(C)(C)C(=O)N4)CC2)C1 [Example 28],134
20,CC1C[C@]2(CC[C@@H](CN3CCC4(CC3)CN(c3ncnnc3Oc3ccc(F)cc3C(=O)N(C(C)C)C(C)C)C4)CC2)NC1=O (stereo partly drawn) [Example 41-2],22.4
